Test results published in BindingDB's records for PubMed 15050915 (Novartis Institutes for BioMedical Research).

Test: Inhibition of PDK1 (unknown origin)

IC50: 4.8 µM
SMILES: Nc1ncnc2c1c(-c1cccc(OCc3ccccc3)c1)cn2[C@H]1C[C@@H](CN2CCC2)C1
